Reference: US20100120879A1, “INSECTICIDES AS SAFENER FOR FUNGICIDES WITH PHYTOTOXIC ACTION” (priority 2007, published 2010)

Tests used:
wheat = wheat treated with the azole fungicide; F. Montfort et al., Pesticide Science 46(4), 1996; cited from earlier work
Phakopsora pachyrhizi = assay: Fungicidal activity against soybean rust after seed treatment; type: in vivo; settings: triticonazole 50 g, fipronil 50 g, gibberellic acid 1 g a.s. per 100 kg seeds
[1] = tested on: soybeans, variety "Conquista"; assay: Vitality of the plants 14 days after sowing (visual score); settings: visual scale 0 to 10, untreated = 5, each point = 20% improvement or deterioration, triticonazole 50 g, fipronil 50 g, gibberellic acid 1 g a.s. per 100 kg seeds

CC1(C)CCC(=Cc2ccc(Cl)cc2)C1(O)Cn1cncn1 (centres unmarked) [Triticonazole, triticonazole]
Longitudinal growth of treated wheat (wheat): greatly reduced longitudinal growth | Infection (percentage of diseased leaf area) (Phakopsora pachyrhizi; leaves in the middle part of the plant, 35 days after sowing, untreated 10.5): 9% | Infection (percentage of diseased leaf area) (Phakopsora pachyrhizi; lower part of the plant, 21 days after sowing, untreated 8.5): 0% | Infection (percentage of diseased leaf area) (Phakopsora pachyrhizi; lower part of the plant, 35 days after sowing, untreated 70): 47% | Vitality [1]: 2
